The results in this text go back to patent US8114865B2, “Indazole derivatives as kinase inhibitors for the treatment of cancer” (Nerviano Medical Sciences S.R.L., priority 2006, dated 2012).

By IC50 is commonly meant the concentration at which inhibition is half-maximal.

Assay [1] deals with T1, ALK (Homo sapiens, UniProt Q9UM73).
T1 construct: ALK cytoplasmic domain, corresponding to residues 1060-1620; made in house; host or cells: Sf21 insect cells (baculovirus)
Put plainly: Biochemical assay for inhibitors of ALK kinase activity. From the text: ALK cytoplasmic domain, corresponding to residues 1060-1620 (the numbers of the amino acid residues refer to the Genbank accession number NP 004295.2) was PCR amplified from a human testis cDNA library.
For cloning purposes, the oligonucleotides included attB sites in order to obtain an attB-flanked PCR product suitable for cloning using the Gateway technology (Invitrogen). Furthermore, for purification purposes, forward primer included a PreScission cleavage site (Amersham Biosciences). The resulting PCR product was cloned in the baculovirus expression vector pVL1393 (Invitrogen), Gateway-modified. For expression and purification purposes, a GST tag was added N-terminal to the ALK cytoplasmic domain. Cloning was performed according to the protocols described in the Gateway manual (Invitrogen).
Baculovirus was generated by cotransfecting Sf9 insect cells with expression vector and the viral DNA using the BaculoGold™ transfection kit (Pharmingen).
Recombinant protein was produced by infecting Sf21 insect cells at the density of 1×10^6 cells/mL with 30 mL viral supernatant per billion cells with shaking at 27° C. After 48 hours of infections the cells were recovered, pelleted and frozen at −80° C.
Cells were resuspended in lysis buffer (Tris-HCl 50 mM pH8, NaCl 150 mM, CHAPS 0.2%, DTT 20 mM, glycerol 20%, “Complete” protease inhibitor cocktail (Roche Diagnostics), Na3VO4 1 mM and lysed by liquid extrusion with a Gaulin homogenizer (Niro Soavi Italy). The lysate was cleared by centrifugation at 20000 g for 30 minutes and loaded on a Glutathione Sepharose 4B (Amersham Biosciences) column.
After extensive wash, recombinant protein was eluted with 10 mM Glutathione in 100 mM Tris-HCl pH8, 10% glycerol.
Affinity purified GST-ALK was loaded on a Heparin Sepharose™ FF (Amersham Biosciences) column and eluted with 50 mM NaCl, 25 mM TRIS pH 7.5, 2 mM DTT, 20% glycerol.
The eluted fractions were pooled and dialyzed against 150 mM NaCl, 50 mM Tris-HCl pH 7.4, 2 mM DTT, 20% glycerol.
The in vitro kinase inhibition assay was conducted in the same way as described for IGF-1R. […]

The target in assay [2] is IGF-1R (Homo sapiens, UniProt P08069). As to the kind of experiment: Biochemical assay for inhibitors of IGF-1R kinase activity (trans-phosphorylation, Dowex). The arrangement: amino acid residues 960-1367 of precursor protein; made in house; host or cells: H5 insect cells (baculovirus; virus generated in Sf21). The following applies: read-out: IGF1R IC50. As to the method:
Human cDNA was used as template for amplification by polymerase chain reaction (PCR) of the predicted cytoplasmic portion of IGF-1R (amino acid residues 960-1367 of precursor protein; see NCBI Entrez Protein Accession #P08069) which includes the entire kinase domain. PCR was conducted using the forward primer sequence 5′-[…]-3′ [SEQ ID NO: 1] and the reverse primer sequence 5′-[…]-3′[SEQ ID NO: 2].
In order to facilitate subsequent cloning steps, both primers comprise a BamHI restriction endonuclease site sequence. This PCR product was cloned in frame using BamHI sticky ends into a transfer vector for the baculovirus expression system, pVL1392 (Pharmingen), previously modified by insertion into the pVL1392 multiple cloning site of sequences encoding Glutathione S-transferase (GST) fusion protein, PreScission protease cleavage site and partial MCS cassette derived from the pGex-6P plasmid (Amersham BioSciences). Insertion of the IGF-1R PCR product described above into the pGex-6P derived BamHI site of the modified pVL1392 vector results in an open reading frame corresponding to the pGEX-6P GST protein and PreScission peptide fused with the human IGF-1R cytoplasmic domain. In order to obtain fusion protein, Sf21 insect cells (Invitrogen) are cotransfected with 2 microg of purified plasmid and 1 microg of virus DNA (BaculoGold™ Transfection Kit, Pharmingen), as described in the Baculovirus Instruction manual (Pharmingen). A first amplification of the virus is performed using 600 microL of cotransfected virus on 6×10^6 Sf21 in a monolayer culture, in 12 mL of medium (TNM-FH Grace's medium—Pharmingen). After 3 days the medium is collected, centrifuged and transferred to a sterile tube. A second amplification is prepared with the same method using 2 mL on 3×10^7 cells, diluted in 40 mL of medium. For the third amplification of virus, 1 mL of supernatant from the second round are used per 3×10^7 cells diluted in 40 mL of medium. […]
The inhibitory activity of putative kinase inhibitors and the potency of selected compounds were determined using a trans-phosphorylation assay. […]

Chain of IGF-1R (P08069 960-1367): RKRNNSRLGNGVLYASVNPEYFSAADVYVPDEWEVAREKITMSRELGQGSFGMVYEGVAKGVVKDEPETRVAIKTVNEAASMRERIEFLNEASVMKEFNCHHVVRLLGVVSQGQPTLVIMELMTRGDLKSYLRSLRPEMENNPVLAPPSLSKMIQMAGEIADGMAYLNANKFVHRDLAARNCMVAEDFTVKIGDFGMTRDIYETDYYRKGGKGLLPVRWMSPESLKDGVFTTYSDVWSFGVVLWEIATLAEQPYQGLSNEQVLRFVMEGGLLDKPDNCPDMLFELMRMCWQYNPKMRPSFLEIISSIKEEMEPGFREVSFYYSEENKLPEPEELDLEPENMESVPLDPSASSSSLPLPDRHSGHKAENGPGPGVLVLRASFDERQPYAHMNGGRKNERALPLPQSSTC
T1 sequence (Q9UM73 1060-1620): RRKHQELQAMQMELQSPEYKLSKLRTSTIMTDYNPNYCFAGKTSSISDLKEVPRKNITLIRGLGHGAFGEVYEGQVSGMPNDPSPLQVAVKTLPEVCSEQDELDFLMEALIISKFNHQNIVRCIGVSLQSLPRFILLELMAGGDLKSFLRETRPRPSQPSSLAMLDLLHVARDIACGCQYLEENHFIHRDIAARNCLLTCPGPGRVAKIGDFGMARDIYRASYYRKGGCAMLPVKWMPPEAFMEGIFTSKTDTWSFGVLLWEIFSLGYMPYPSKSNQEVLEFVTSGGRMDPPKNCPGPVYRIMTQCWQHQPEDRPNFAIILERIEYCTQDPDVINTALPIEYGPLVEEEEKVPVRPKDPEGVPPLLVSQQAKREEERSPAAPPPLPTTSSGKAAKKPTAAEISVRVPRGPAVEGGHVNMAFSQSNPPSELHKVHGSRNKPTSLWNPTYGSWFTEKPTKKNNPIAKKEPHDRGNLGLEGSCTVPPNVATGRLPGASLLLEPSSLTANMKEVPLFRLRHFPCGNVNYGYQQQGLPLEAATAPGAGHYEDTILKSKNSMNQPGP

For `CN1CCN(c2ccc(C(=O)Nc3n[nH]c4ccc(S(=O)(=O)c5ccccc5)cc34)cc2)CC1` [Compound 1, N-(5-Benzenesulfonyl-1H-indazol-3-yl)-4-(4-methyl-piperazin-1-yl)-benzamide], the IC50 in assay [1] worked out at 340 nM; in assay [2], 850 nM.
For `CN1CCN(c2ccc(C(=O)Nc3n[nH]c4ccc(S(=O)(=O)c5ccccc5)cc34)c(NC(=O)c3ccc[nH]3)c2)CC1` [Compound 33, 1H-pyrrole-2-carboxylic acid [2-(5-benzenesulfonyl-1H-indazol-3-ylcarbamoyl)-5-(4-methyl-piperazin-1-yl)-phenyl]amide] the same measures were 34 nM and 36 nM.
Regarding `CN1CCN(c2ccc(C(=O)Nc3n[nH]c4ccc(S(=O)(=O)c5ccccc5)cc34)c(NC(=O)[C@@H]3CCCO3)c2)CC1` [Compound 36, (S)-Tetrahydro-furan-2-carboxylic acid [2-(5-benzenesulfonyl-1H-indazol-3-ylcarbamoyl)-5-(4-methyl-piperazin-1-yl)-phenyl]-amide], the half-maximal inhibitory concentration (IC50) is 170 nM in assay [1] and 230 nM in assay [2].
